Test results taken from patent US8993561B2, “Nitrobenzothiazole derivatives, preparation thereof and therapeutic applications thereof” (Sanofi, priority 2010, dated 2015).
In brackets after ≈: the same amount, converted by molar mass.

tested on: Mycobacterium tuberculosis H37Rv strain; assay: Alamar blue (MABA) test, MIC on Mycobacterium tuberculosis H37Rv; type: cell-based; details: H37RV, read-out: fluorimetric MIC (minimum inhibitory concentration) with respect to the growth of Mycobacterium tuberculosis

`O=C(NCCc1cccc(Cl)c1)c1nc2cc(C(F)(F)F)cc([N+](=O)[O-])c2s1` [Compound 16, N-[2-(3-chlorophenyl)-ethyl]-7-nitro-5-(trifluoromethyl)-1,3-benzothiazole-2-carboxamide] and `O=C(NCCc1ccccc1O)c1nc2cc(C(F)(F)F)cc([N+](=O)[O-])c2s1` [Compound 17, N-[2-(2-hydroxyphenyl)ethyl]-7-nitro-5-(trifluoromethyl)-1,3-benzothiazole-2-carboxamide] cannot be ordered by MIC: < 0.5 µM for the first, < 0.5 µM for the second.

`O=C(NCCc1nc2ccccc2o1)c1nc2cc(C(F)(F)F)cc([N+](=O)[O-])c2s1` [Compound 38, N-[2-(1,3-benzoxazol-2-yl)ethyl]-7-nitro-5-(trifluoromethyl)-1,3-benzothiazole-2-carboxamide] and `O=C(NCCc1ccc(O)cc1)c1nc2cc(C(F)(F)F)cc([N+](=O)[O-])c2s1` [Compound 18, N-[2-(4-hydroxyphenyl)ethyl]-7-nitro-5-(trifluoromethyl)-1,3-benzothiazole-2-carboxamide] cannot be ordered by MIC: < 0.5 µM for the first, < 0.5 µM for the second.

same assay, conditions: in vitro, Alamar blue (MABA), H37Rv strain, fluorescence reading, read-out: fluorimetric MIC (minimum inhibitory concentration) with respect to the growth of Mycobacterium tuberculosis

`O=C(NCCN1CCSCC1)c1nc2cc(C(F)(F)F)cc([N+](=O)[O-])c2s1` [Compound 22, 7-nitro-N-[2-thiomorpholin-4-ylethyl)-5-(trifluoromethyl)-1,3-benzothiazole-2-carboxamide] and `O=C(NCCN1CCc2ccccc2C1)c1nc2cc(C(F)(F)F)cc([N+](=O)[O-])c2s1` [Compound 9, N-[2-(1,2,3,4-tetrahydroisoquinolin-2(1H)-yl)ethyl]-7-nitro-5-(trifluoromethyl)-1,3-benzothiazole-2-carboxamide] cannot be ordered by MIC: < 0.5 µM for the first, < 0.5 µM for the second.

`Cc1nc(CCNC(=O)c2nc3cc(C(F)(F)F)cc([N+](=O)[O-])c3s2)sc1C` [Compound 40, N-[2-(4,5-dimethyl-1,3-thiazol-2-yl)ethyl]-7-nitro-5-(trifluoromethyl)-1,3-benzothiazole-2-carboxamide] and `Cc1nc(CCNC(=O)c2nc3cc(C(F)(F)F)cc([N+](=O)[O-])c3s2)sc1Cl` [Compound 36, N-[2-(5-chloro-4-methyl-1,3-thiazol-2-yl)ethyl]-7-nitro-5-(trifluoromethyl)-1,3-benzothiazole-2-carboxamide] cannot be ordered by MIC: < 0.5 µM for the first, < 0.5 µM for the second.

`O=C(NCC(c1ccccc1)N1CCOCC1)c1nc2cc(C(F)(F)F)cc([N+](=O)[O-])c2s1` (stereo not drawn) [Compound 26, N-(2-morpholin-4-yl-2-phenylethyl)-7-nitro-5-(trifluoromethyl)-1,3-benzothiazole-2-carboxamide] and `CC1(C)CC(CCNC(=O)c2nc3cc(C(F)(F)F)cc([N+](=O)[O-])c3s2)(c2ccccc2)CCO1` (stereo not drawn) [Compound 27, N-[2-(2,2-dimethyl-4-phenyltetrahydro-2H-pyran-4-yl)ethyl]-7-nitro-5-(trifluoromethyl)-1,3-benzothiazole-2-carboxamide] cannot be ordered by MIC: < 0.5 µM for the first, < 0.5 µM for the second.

`COc1ccc(CCNC(=O)c2nc3cc(C(F)(F)F)cc([N+](=O)[O-])c3s2)cc1` [Compound 7, N-[2-(4-methoxyphenyl)ethyl]-7-nitro-5-(trifluoromethyl)-1,3-benzothiazole-2-carboxamide] and `O=C(NCCc1ccc(F)cc1)c1nc2cc(C(F)(F)F)cc([N+](=O)[O-])c2s1` [Compound 14, N-[2-(4-fluorophenyl)ethyl]-7-nitro-5-(trifluoromethyl)-1,3-benzothiazole-2-carboxamide] cannot be ordered by MIC: < 0.5 µM for the first, < 0.5 µM for the second.

`CO[C@H]1/C=C/O[C@@]2(C)Oc3c(C)c(O)c4c(O)c(c(/C=N/N5CCN(C)CC5)c(O)c4c3C2=O)NC(=O)/C(C)=C\C=C\[C@H](C)[C@H](O)[C@@H](C)[C@@H](O)[C@@H](C)[C@H](OC(C)=O)[C@@H]1C` [rifampicin, reference compound] and `COc1ccc(CCNC(=O)c2nc3cc(C(F)(F)F)cc([N+](=O)[O-])c3s2)cc1OC` [Compound 15, N-[2-(3,4-dimethoxyphenyl)ethyl]-7-nitro-5-(trifluoromethyl)-1,3-benzothiazole-2-carboxamide] cannot be ordered by MIC: 0.12 µM (≈ 0.0988 µg/mL) for the first, < 0.5 µM for the second.

`Cc1cccnc1CCNC(=O)c1nc2cc(C(F)(F)F)cc([N+](=O)[O-])c2s1` [Compound 25, N-[2-(3-methylpyridin-2-yl)ethyl]-7-nitro-5-(trifluoromethyl)-1,3-benzothiazole-2-carboxamide] and `O=C(NCCNc1ccccn1)c1nc2cc(C(F)(F)F)cc([N+](=O)[O-])c2s1` [Compound 21, 7-nitro-N-[2-(pyridin-2-ylamino)ethyl]-5-(trifluoromethyl)-1,3-benzothiazole-2-carboxamide] cannot be ordered by MIC: < 0.5 µM for the first, < 0.5 µM for the second.

`O=C(NCCC1CCOCC1)c1nc2cc(C(F)(F)F)cc([N+](=O)[O-])c2s1` [Compound 2, 7-nitro-N-[2-(tetrahydro-2H-pyran-4-yl)ethyl]-5-(trifluoromethyl)-1,3-benzothiazole-2-carboxamide] and `CCc1csc(CCNC(=O)c2nc3cc(C(F)(F)F)cc([N+](=O)[O-])c3s2)n1` [Compound 39, N-[2-(4-ethyl-1,3-thiazol-2-yl)ethyl]-7-nitro-5-(trifluoromethyl)-1,3-benzothiazole-2-carboxamide] cannot be ordered by MIC: < 0.5 µM for the first, < 0.5 µM for the second.

`NNC(=O)c1ccncc1` [isoniazid, reference compound] showed an MIC of 0.36 µM (≈ 0.0494 µg/mL).

tested on: not given; assay: not given; details: not given

First: O=C(NCCC1CCOCC1)c1nc2cc(C(F)(F)F)cc([N+](=O)[O-])c2s1 [Compound 2, 7-nitro-N-[2-(tetrahydro-2H-pyran-4-yl)ethyl]-5-(trifluoromethyl)-1,3-benzothiazole-2-carboxamide]
Second: O=C(NCCc1ccc(Cl)cc1)c1nc2cc(C(F)(F)F)cc([N+](=O)[O-])c2s1
The melting point of the first is higher: 154 °C for the first, 140 °C for the second.
